According to ChEMBL document CHEMBL5113413, “New peptidomimetic rhodesain inhibitors with improved selectivity towards human cathepsins” (Eur J Med Chem, 2022):
Active and inactive are the calls of the source. No cut-off for these calls is given here.

Experiments:
Rhodesain = Rhodesain (Trypanosoma brucei rhodesiense, UniProt Q95PM0); experiment: Irreversible inhibition of Trypanosoma brucei rhodesiense rhodesain assessed as inhibition constant using Cbz-Phe-Arg-AMC as fluorogenic substrate by fluorometric assay
Sequence of Rhodesain (Q95PM0 whole entry): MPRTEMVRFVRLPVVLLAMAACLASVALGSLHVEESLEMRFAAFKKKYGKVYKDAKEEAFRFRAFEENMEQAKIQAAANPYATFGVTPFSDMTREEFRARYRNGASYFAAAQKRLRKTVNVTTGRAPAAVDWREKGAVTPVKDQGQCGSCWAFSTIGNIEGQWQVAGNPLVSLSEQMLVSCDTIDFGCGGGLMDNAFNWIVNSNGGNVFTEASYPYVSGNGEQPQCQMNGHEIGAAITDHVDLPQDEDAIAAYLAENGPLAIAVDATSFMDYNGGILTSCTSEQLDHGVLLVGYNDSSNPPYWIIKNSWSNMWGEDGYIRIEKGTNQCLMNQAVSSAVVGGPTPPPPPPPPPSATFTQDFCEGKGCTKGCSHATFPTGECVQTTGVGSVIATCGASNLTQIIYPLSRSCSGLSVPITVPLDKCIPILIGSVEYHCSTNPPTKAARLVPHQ

[1] = tested on: Trypanosoma brucei brucei; experiment: Antitrypanosomal activity against Trypanosoma brucei brucei BS449 assessed as luminescence incubated for 48 hrs by ATPlite assay; format: functional, organism-based; settings: BS449, 48 h
[2] = Cytotoxicity against mouse J774.1 cells assessed as reduction in cell viability incubated for 48 hrs by MTT assay; format: toxicity, cell-based
Procathepsin L [3] = target: T1, Procathepsin L (Homo sapiens, UniProt P07711); experiment: Inhibition of human Cathepsin L at 20 uM using Cbz-Phe-Arg-AMC as fluorogenic substrate by fluorometric assay
Target sequence in this assay (P07711 114-333 limits assumed): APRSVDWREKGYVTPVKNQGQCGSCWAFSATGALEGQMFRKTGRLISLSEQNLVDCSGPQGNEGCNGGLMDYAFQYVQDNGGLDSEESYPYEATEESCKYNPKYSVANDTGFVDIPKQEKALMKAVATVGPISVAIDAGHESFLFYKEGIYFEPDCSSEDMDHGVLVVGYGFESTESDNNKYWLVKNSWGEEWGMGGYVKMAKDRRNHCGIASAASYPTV

Cathepsin B [4] = target: T2, Cathepsin B (Homo sapiens, UniProt P07858); experiment: Inhibition of human Cathepsin B at 20 uM using Cbz-Phe-Arg-AMC as fluorogenic substrate by fluorometric assay
[5] = target: Rhodesain (Trypanosoma brucei rhodesiense) (UniProt Q95PM0); experiment: Reversible inhibition of Trypanosoma brucei rhodesiense rhodesain assessed as recovery of enzyme activity preincubated for 30 mins followed by substrate addition using Cbz-Phe-Arg-AMC as fluorogenic substrate by fluorometric 100-fold dilution assay
Sequence of Rhodesain (Trypanosoma brucei rhodesiense) (Q95PM0 1-450): as the sequence (Q95PM0 whole entry) above

[6] = target: Rhodesain (Trypanosoma brucei rhodesiense) (UniProt Q95PM0); experiment: Irreversible inhibition of Trypanosoma brucei rhodesiense rhodesain assessed as no recovery of enzyme activity preincubated for 30 mins followed by substrate addition using Cbz-Phe-Arg-AMC as fluorogenic substrate by fluorometric 100-fold dilution assay
[7] = target: Rhodesain (Trypanosoma brucei rhodesiense) (UniProt Q95PM0); experiment: Irreversible inhibition of Trypanosoma brucei rhodesiense rhodesain assessed as Kinact using Cbz-Phe-Arg-AMC as fluorogenic substrate by fluorometric assay
[8] = target: Rhodesain (Trypanosoma brucei rhodesiense) (UniProt Q95PM0); experiment: Irreversible inhibition of Trypanosoma brucei rhodesiense rhodesain assessed as second order rate constant using Cbz-Phe-Arg-AMC as fluorogenic substrate by fluorometric assay
Procathepsin L [9] = target: T1, Procathepsin L; experiment: Irreversible inhibition of human Cathepsin L assessed as inhibition constant using Cbz-Phe-Arg-AMC as fluorogenic substrate by fluorometric assay
Target sequence in this assay (P07711 whole entry): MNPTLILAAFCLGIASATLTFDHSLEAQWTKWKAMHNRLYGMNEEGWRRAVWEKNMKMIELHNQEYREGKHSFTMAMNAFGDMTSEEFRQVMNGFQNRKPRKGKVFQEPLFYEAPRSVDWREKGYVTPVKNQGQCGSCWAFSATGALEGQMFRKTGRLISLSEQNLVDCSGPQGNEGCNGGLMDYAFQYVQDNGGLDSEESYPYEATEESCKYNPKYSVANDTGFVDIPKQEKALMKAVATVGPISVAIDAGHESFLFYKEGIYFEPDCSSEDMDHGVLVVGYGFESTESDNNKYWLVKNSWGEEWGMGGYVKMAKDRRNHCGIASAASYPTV

[10] = target: T3, 20S proteasome (Homo sapiens) (UniProt P49721+P20618+P28074+P28062+P28065+P28072+P25786+P25787+P25788+P25789+P28066+P60900+O14818+Q8TAA3+P40306+A5LHX3+P49720+P28070+Q99436); experiment: Inhibition of human 20S proteasome trypsin-like activity at 11 uM using Boc-Leu-Arg-Arg-AMC as fluorogenic substrate by fluorometric assay; format: protein-complex assay
[11] = target: T3, 20S proteasome (Homo sapiens); experiment: Inhibition of human 20S proteasome caspase-like activity at 11 uM using Cbz-Leu-Leu-Glu-AMC as fluorogenic substrate by fluorometric assay; format: protein-complex assay
Procathepsin L [12] = target: T1, Procathepsin L; experiment: Irreversible inhibition of human Cathepsin L assessed as Kinact using Cbz-Phe-Arg-AMC as fluorogenic substrate by fluorometric assay
Target sequence in this assay (P07711 114-333 limits assumed): as the sequence (P07711 114-333 limits assumed) above

Procathepsin L [13] = target: T1, Procathepsin L; experiment: Irreversible inhibition of human Cathepsin L assessed as second order rate constant using Cbz-Phe-Arg-AMC as fluorogenic substrate by fluorometric assay
Target sequence in this assay (P07711 114-333 limits assumed): as above

Cathepsin B [14] = target: T2, Cathepsin B; experiment: Irreversible inhibition of human Cathepsin B assessed as inhibition constant using Cbz-Phe-Arg-AMC as fluorogenic substrate by fluorometric assay
Cathepsin B [15] = target: T2, Cathepsin B; experiment: Irreversible inhibition of human Cathepsin B assessed as Kinact using Cbz-Phe-Arg-AMC as fluorogenic substrate by fluorometric assay
Cathepsin B [16] = target: T2, Cathepsin B; experiment: Irreversible inhibition of human Cathepsin B assessed as second order rate constant using Cbz-Phe-Arg-AMC as fluorogenic substrate by fluorometric assay
[17] = target: T3, 20S proteasome (Homo sapiens); experiment: Inhibition of human 20S proteasome chymotrypsin-like activity at 11 uM using Succ-Leu-Leu-Val-Tyr-AMC as fluorogenic substrate by fluorometric assay; format: protein-complex assay
[18] = target: Genome polyprotein (dengue virus type 2) (UniProt P29990); experiment: Inhibition of Dengue virus NS2B-NS3 protease at 11 uM using Boc-Gly-Arg-Arg-AMC as fluorogenic substrate by fluorometric assay
[19] = target: Rhodesain (Trypanosoma brucei rhodesiense) (UniProt Q95PM0); experiment: Inhibition of Trypanosoma brucei rhodesiense rhodesain at 20 uM using Cbz-Phe-Arg-AMC as fluorogenic substrate by fluorometric assay

Compound	Ki (Rhodesain) [nM]	EC50 [1] [nM]	CC50 at 48 h [2] [nM]	inhibition (Cathepsin B [4]) [%]	Kinact [7] [s⁻¹]	Second-order inactivation rate constant (kinact/Ki) [8]	other results
O=C(NCc1ccccc1C(=O)N[C@H](/C=C/S(=O)(=O)c1ccccc1)CCc1ccccc1)c1cccc(O)c1	651	3300	36000	–	–	–	–
O=C(NCc1ccccc1C(=O)N[C@H](/C=C(\F)S(=O)(=O)Cc1ccccc1)CCc1ccccc1)c1ccc2c(c1)OCCO2	491	–	–	< 10	–	–	inhibition (Procathepsin L [3]): 15%; inhibition [5]: Active; inhibition [6]: Active
CN1CCN(C(=O)NCc2ccccc2C(=O)N[C@H](/C=C/S(=O)(=O)Cc2ccccc2)CCc2ccccc2)CC1	318	–	–	–	0.005	0.16 10^5/M/s	–
O=C(NCc1ccccc1C(=O)N[C@H](/C=C(\F)S(=O)(=O)c1ccccc1)CCc1ccccc1)c1ccncc1	430	–	–	< 10	–	–	Ki (Procathepsin L [9]): 14100 nM
O=C(NCc1ccccc1C(=O)N[C@H](/C=C/S(=O)(=O)Cc1ccccc1)CCc1ccccc1)c1ccncc1	436	–	–	–	0.006	0.14 10^5/M/s	–
O=C(NCc1ccccc1C(=O)N[C@H](/C=C(\F)S(=O)(=O)c1ccccc1)CCc1ccccc1)c1ccc2c(c1)OCCO2	339	–	–	< 10	–	–	inhibition (Procathepsin L [3]): 31%; inhibition [10]: 14%; inhibition [11]: 34%; inhibition [5]: Active; inhibition [6]: Active
CC(=O)NCc1ccccc1C(=O)N[C@H](/C=C/S(=O)(=O)c1ccccc1)CCc1ccccc1	4680	13500	48000	–	–	–	–
O=C(NCc1ccccc1C(=O)N[C@H](/C=C(\F)S(=O)(=O)Oc1ccccc1)CCc1ccccc1)c1ccncc1	916	1800	> 100000	–	–	–	–
O=C(NCc1ccccc1C(=O)N[C@H](/C=C/S(=O)(=O)Cc1ccccc1)CCc1ccccc1)c1cc(F)cc(F)c1	356	–	–	< 10	0.0125	0.35 10^5/M/s	inhibition (Procathepsin L [3]): 31%
O=C(NCc1ccccc1C(=O)N[C@H](/C=C(\F)S(=O)(=O)Cc1ccccc1)CCc1ccccc1)c1ccncc1	840	–	–	–	–	–	–
O=C(NCc1ccccc1C(=O)N[C@H](/C=C/S(=O)(=O)Oc1ccccc1)CCc1ccccc1)c1ccc2c(c1)OCCO2	10	–	–	–	0.0079	7.9 10^5/M/s	Ki (Procathepsin L [9]): 310 nM; Kinact (Procathepsin L [12]): 0.0104 s⁻¹; Second-order inactivation rate constant (Procathepsin L [13]): 3.34 10^4/M/s; Ki (Cathepsin B [14]): 800 nM; Kinact (Cathepsin B [15]): 0.013 s⁻¹; Kdiss (Cathepsin B [16]): 1.64 10^4/M/s; inhibition [11]: 43%; inhibition [17]: 12%; inhibition [18]: 31%; inhibition [6]: Active
O=C(NCc1ccccc1C(=O)N[C@H](/C=C/S(=O)(=O)Cc1ccccc1)CCc1ccccc1)c1ccc2c(c1)OCCO2	59	–	–	< 10	0.0038	0.64 10^5/M/s	inhibition (Procathepsin L [3]): 39%
CC(=O)N(Cc1ccccc1C(=O)N[C@H](/C=C/S(=O)(=O)c1ccccc1)CCc1ccccc1)C(C)=O	940	5700	36000	–	–	–	–
O=C(Cc1ccccc1C(=O)N[C@H](/C=C/S(=O)(=O)c1ccccc1)CCc1ccccc1)Nc1ccc(C(=O)O)cc1	290	28000	–	–	–	–	–
O=C(NCc1ccccc1C(=O)N[C@H](/C=C/S(=O)(=O)c1ccccc1)CCc1ccccc1)c1cc(F)cc(F)c1	109	–	–	–	0.0173	1.59 10^5/M/s	Ki (Procathepsin L [9]): 1890 nM; Kinact (Procathepsin L [12]): 0.0045 s⁻¹; Second-order inactivation rate constant (Procathepsin L [13]): 2.38 10^3/M/s; Ki (Cathepsin B [14]): 3040 nM; Kinact (Cathepsin B [15]): 0.0022 s⁻¹; Kdiss (Cathepsin B [16]): 7.24 10^2/M/s; inhibition [11]: 24%; inhibition [18]: 11%
O=C(NCc1ccccc1C(=O)N[C@H](/C=C/S(=O)(=O)Oc1ccccc1)CCc1ccccc1)c1cc(F)cc(F)c1	15	–	–	–	0.0117	7.8 10^5/M/s	Ki (Procathepsin L [9]): 560 nM; Kinact (Procathepsin L [12]): 0.0022 s⁻¹; Second-order inactivation rate constant (Procathepsin L [13]): 3.92 10^3/M/s; Ki (Cathepsin B [14]): 760 nM; Kinact (Cathepsin B [15]): 0.0071 s⁻¹; Kdiss (Cathepsin B [16]): 9.34 10^3/M/s; inhibition [11]: 33%; inhibition [17]: 14%; inhibition [18]: 35%

Compound	Ki (Rhodesain) [nM]	EC50 [1] [nM]	CC50 at 48 h [2] [nM]	inhibition (Cathepsin B [4]) [%]	Kinact [7] [s⁻¹]	Second-order inactivation rate constant (kinact/Ki) [8]	other results
O=C(NCc1ccccc1C(=O)N[C@H](/C=C/S(=O)(=O)c1ccccc1)CCc1ccccc1)c1ccccc1	100	3600	> 100000	–	–	–	Ki (Procathepsin L [9]): 1490 nM; Ki (Cathepsin B [14]): 1980 nM; inhibition [10]: 23%; inhibition [11]: 39%; inhibition [17]: 14%
CNC(=O)Cc1ccccc1C(=O)N[C@H](/C=C/S(=O)(=O)c1ccccc1)CCc1ccccc1	470	13000	> 100000	–	–	–	–
O=C(NCc1ccccc1C(=O)N[C@H](/C=C/S(=O)(=O)c1ccccc1)CCc1ccccc1)c1ccc2c(c1)OCCO2	504	–	–	< 10	0.0005	0.01 10^5/M/s	inhibition (Procathepsin L [3]): 41%
O=C(Cc1ccccc1C(=O)N[C@H](/C=C/S(=O)(=O)c1ccccc1)CCc1ccccc1)Nc1cccc(C(=O)O)c1	17600	> 40000	–	–	–	–	–
O=C(O)c1ccc(C(=O)NCc2ccccc2C(=O)N[C@H](/C=C/S(=O)(=O)c2ccccc2)CCc2ccccc2)cc1	4030	–	–	–	0.0031	0.0077 10^5/M/s	–
O=C(NCc1ccccc1C(=O)N[C@H](/C=C(\F)S(=O)(=O)c1ccccc1)CCc1ccccc1)c1cc(F)cc(F)c1	601	–	–	–	–	–	–
O=C(NCc1ccccc1C(=O)N[C@H](/C=C/S(=O)(=O)Oc1ccccc1)CCc1ccccc1)c1ccncc1	9	4200	–	–	–	–	Ki (Procathepsin L [9]): 1150 nM; Ki (Cathepsin B [14]): 1010 nM; inhibition [11]: 41%; inhibition [18]: 26%
O=C(O)c1cccc(C(=O)NCc2ccccc2C(=O)N[C@H](/C=C/S(=O)(=O)c2ccccc2)CCc2ccccc2)c1	7430	15000	> 100000	–	–	–	–
O=C(NCc1ccccc1C(=O)N[C@H](/C=C/S(=O)(=O)Cc1ccccc1)CCc1ccccc1)c1ccccc1	389	–	–	–	0.0095	0.24 10^5/M/s	–
CN1CCN(C(=O)NCc2ccccc2C(=O)N[C@H](/C=C(\F)S(=O)(=O)c2ccccc2)CCc2ccccc2)CC1	–	–	–	–	–	–	inhibition [19]: 18%
O=C(NCc1ccccc1C(=O)N[C@H](/C=C(\F)S(=O)(=O)Cc1ccccc1)CCc1ccccc1)c1cc(F)cc(F)c1	608	–	–	–	–	–	–
O=C(NCc1ccccc1C(=O)N[C@H](/C=C(\F)S(=O)(=O)c1ccccc1)CCc1ccccc1)c1ccccc1	568	3300	43000	< 10	–	–	Ki (Procathepsin L [9]): 8800 nM; inhibition [11]: 25%
O=C(NCc1ccccc1C(=O)N[C@H](/C=C(\F)S(=O)(=O)Oc1ccccc1)CCc1ccccc1)c1ccc2c(c1)OCCO2	379	3000	> 100000	< 10	–	–	inhibition (Procathepsin L [3]): 23%; inhibition [5]: Active; inhibition [6]: Active
O=C(NCc1ccccc1C(=O)N[C@H](/C=C(\F)S(=O)(=O)Oc1ccccc1)CCc1ccccc1)c1cc(F)cc(F)c1	638	–	–	< 10	–	–	inhibition (Procathepsin L [3]): 14%
CN1CCN(C(=O)N[C@@H](Cc2ccccc2)C(=O)N[C@H](/C=C/S(=O)(=O)c2ccccc2)CCc2ccccc2)CC1 [K-777]	–	–	41000	–	–	–	inhibition [6]: Active
O=C(NCc1ccccc1C(=O)N[C@H](/C=C/S(=O)(=O)c1ccccc1)CCc1ccccc1)c1ccncc1	107	–	–	44	0.0046	0.43 10^5/M/s	Ki (Procathepsin L [9]): 2250 nM; Kinact (Procathepsin L [12]): 0.0026 s⁻¹; Second-order inactivation rate constant (Procathepsin L [13]): 1.16 10^3/M/s
